Source: US20120177681A1, “Formulation of immunopotentiators” (priority 2010, published 2012)
pEC50: −log10 of the molar value. Read-outs that look alike come from different tables or passages of the source.

Columns and labels:
Water solubility = format: physicochemical; settings: read-out: water-soluble at
[1] = Model of in vivo desorption from Al—H; format: in vitro ADME; settings: 37° C.
[2] = Muscle levels 24 hours after intramuscular injection; format: in vivo, Balb/C mice; settings: for detection in muscle 24 hours after intramuscular injection / concentration at 24 h: 100 μg; for concentration at 24 h: Balb/C, mouse, muscle, intramuscular, 100 μg i.m.
[3] = format: physicochemical; settings: SDS-PAGE of supernatants
[4] = Systemic serum exposure after intramuscular injection; format: in vivo, Balb/C mice; settings: Balb/C, mouse; for AUC: im, 100 μg i.m.; for Cmax: intramuscular, 100 μg
human TLR7 = target: T1, human TLR7 (Homo sapiens, UniProt Q9NYK1); test: HEK293 human TLR7 NF-κB luciferase reporter assay; format: cell-based; settings: HEK293 cells
T1 construct: expressed in transfected cells; host or cells: HEK293
T1 sequence (Q9NYK1 27-1049): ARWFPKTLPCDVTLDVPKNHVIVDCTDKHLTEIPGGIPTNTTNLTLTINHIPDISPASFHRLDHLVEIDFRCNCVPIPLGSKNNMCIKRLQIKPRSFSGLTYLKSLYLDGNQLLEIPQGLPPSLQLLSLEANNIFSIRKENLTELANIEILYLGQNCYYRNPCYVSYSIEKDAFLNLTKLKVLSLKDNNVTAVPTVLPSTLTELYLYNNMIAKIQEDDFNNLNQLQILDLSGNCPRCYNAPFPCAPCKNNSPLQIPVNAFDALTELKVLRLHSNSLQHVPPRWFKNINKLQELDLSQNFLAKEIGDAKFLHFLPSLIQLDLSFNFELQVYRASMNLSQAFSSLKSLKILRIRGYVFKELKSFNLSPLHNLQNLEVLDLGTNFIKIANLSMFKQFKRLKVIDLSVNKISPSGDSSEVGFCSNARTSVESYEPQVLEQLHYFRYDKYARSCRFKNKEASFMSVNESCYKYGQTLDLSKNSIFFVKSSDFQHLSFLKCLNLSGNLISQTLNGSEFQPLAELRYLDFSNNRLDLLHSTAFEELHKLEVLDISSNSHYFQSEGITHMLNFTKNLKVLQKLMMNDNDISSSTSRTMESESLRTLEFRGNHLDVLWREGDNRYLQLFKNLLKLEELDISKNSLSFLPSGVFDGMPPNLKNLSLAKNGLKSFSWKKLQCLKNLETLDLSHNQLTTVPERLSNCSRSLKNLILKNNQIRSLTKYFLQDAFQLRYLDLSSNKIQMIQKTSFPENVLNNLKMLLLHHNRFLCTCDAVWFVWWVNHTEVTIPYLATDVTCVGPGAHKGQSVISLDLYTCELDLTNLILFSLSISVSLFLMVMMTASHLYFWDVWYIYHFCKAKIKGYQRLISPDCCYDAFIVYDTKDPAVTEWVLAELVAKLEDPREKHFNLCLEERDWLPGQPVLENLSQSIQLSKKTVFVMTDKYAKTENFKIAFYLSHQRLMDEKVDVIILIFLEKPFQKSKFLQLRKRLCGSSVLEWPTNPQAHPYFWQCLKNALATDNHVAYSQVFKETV
Protocol: The activity of this compound is assessed in an assay using HEK293 cells which are stably transfected with human TLR7 and an NF-κB-driven luciferase reporter vector (pNifty-Luciferase). As a control assay, normal HEK293 transfected with pNifty-Luc are used. Cells are cultured in DMEM supplemented with 2 mM L-glutamine, 10% heart inactivated FBS, 1% penicillin and streptomycin, 2 μg/ml puromycin and 5 μg/ml of blasticidin. Bright-Glo™ Luciferase assay buffer and substrate are supplied by Promega. Cells are plated at 25,000 cells/well in 384-well plates in a final volume of 50 μl of media. Cells are allowed to adhere to the plates after overnight (18 hours) culture at 37° C. and 5% CO2. Serially-diluted experimental and positive control compounds are then dispensed to each well and incubated for 7 hours at 37° C. and 5% CO2. Cells stimulated with DMSO alone serve as negative controls. After the incubation, 30 μl of the pre-mix assay buffer and substrate buffer are added to each well according to manufacturer's instructions. The luminescence signal is read on a CLIPR machine with an integration time of 20 seconds per plate.

[5] = Desorption from Al—H by phosphate / buffer anions; format: physicochemical; settings: KH2PO4 0.5M final, pH 9, overnight at 37° C.
[6] = Solubility in histidine buffer at pH 6.8; format: physicochemical
serum cytokines = test: Serum cytokines after administration; settings: in vivo
[7] = system: serogroup B meningococcus; format: in vivo, CD-1 mice; settings: 5CVMB at days 0 & 14 with (b) the agonist compound
[8] = Confocal microscopy / flow cytometry of association with Al—H; format: physicochemical; settings: in the presence of Al—H
[9] = Adsorption to aluminium hydroxide (Al—H), HPLC of supernatant; format: physicochemical; settings: parent compound, in words
[10] = SIF (simulated interstitial fluid)
[11] = 100 ug, compound alone, 24 hours
[12] = +Al—H (adsorbed), read-out: Levels of compound in muscle 24 hours after injection
[13] = 100 ug, TLR2 agonists, compound alone
[14] = TLR2 agonists, +Al—H (adsorbed)

Q: Which results are given for `Cc1cc(OCCCC(F)(F)P(=O)(O)O)ccc1CCc1cnc2c(N)nc3cc(CCC(=O)O)ccc3c2c1` [Compound 3]?
A: solubility (Water solubility): > 1000 µg/mL; proportion desorbed after 5 hours ([1]; His buff): 5%; proportion desorbed after 5 hours ([1]; Plasma/His buff): 49%; proportion desorbed after 5 hours [1, 10]: 100%; detection in muscle 24 hours after intramuscular injection ([2]; injected with Al—H): readily detected; detection in muscle 24 hours after intramuscular injection ([2]; without Al—H (free form)): undetectable; adsorption of MenB antigens to Al—H after pre-adsorption of compound [3]: completely adsorbed

Q: For `Cc1cc(OCCOCCOCCC(F)(F)P(=O)(O)O)ccc1CCc1cnc2c(N)nc3cc(CCC(=O)O)ccc3c2c1` [Compound 4], which solubility (Water solubility) is on record?
A: > 1000 µg/mL

Q: What about the “proportion desorbed after 5 hours” value ([1]; His buff) of the same molecule?
A: 4%

Q: And the “proportion desorbed after 5 hours” value ([1]; Plasma/His buff)?
A: 81%

Q: And the “proportion desorbed after 5 hours” value [1, 10]?
A: 100%

Q: And the “detection in muscle 24 hours after intramuscular injection” value (from here on “detection in muscle 24 hours”) ([2]; injected with Al—H)?
A: readily detected

Q: What about the “detection in muscle 24 hours” value ([2]; without Al—H (free form)) of the same molecule?
A: undetectable

Q: What about the “adsorption of MenB antigens to Al—H after pre-adsorption of compound” value [3] of the same molecule?
A: completely adsorbed

Q: Which solubility (Water solubility) does the source give for `COCCOc1nc(N)c2nc(O)n(Cc3ccc(CP(=O)(O)O)cc3)c2n1` [Compound 6, (4-((6-amino-2-(2-methoxyethoxy)-8-oxo-7H-purin-9(8H)-yl)methyl)benzyl)phosphonic acid] here?
A: > 1000 µg/mL

Q: And the AUC [4, 11]?
A: 7.18 µM·h

Q: And the AUC ([4]; +Al—H (adsorbed), 24 hours)?
A: 13.4 µM·h

Q: And the Cmax ([4]; +Al—H (adsorbed))?
A: 5520 nM

Q: And the Cmax ([4]; compound alone)?
A: 6120 nM

Q: What about the “detection in muscle 24 hours” value ([2]; without Al—H (free form)) of the same molecule?
A: undetectable

Q: What about the concentration at 24 h [2, 12] of the same molecule?
A: 2770 nM

Q: And the concentration at 24 h ([2]; compound alone)?
A: 0 nM

Q: What about the “detection in inguinal lymph nodes or in liver” value ([2]; after 24 hours) of the same molecule?
A: could not be detected

Q: And the pEC50 (human TLR7)?
A: 6.39

Q: With `CCOCc1nc2c(N)nc3ccccc3c2n1CCOCCP(=O)(O)O` [Compound 7] as the molecule, how does the pEC50 (human TLR7) read?
A: 4.18

Q: With `CCCCCNc1nc(N)nc(C)c1Cc1ccc(CP(=O)(O)O)cc1OC` [Compound 8] as the molecule, how does the pEC50 (human TLR7) read?
A: 5.14

Q: Which “compound in supernatant after KH2PO4 treatment (displacement / desorption)” value [5] does the source give for `Cc1ccc2c(c1)nc(N)c1ncc(CCc3ccc(OCCCP(=O)(O)O)cc3C)cc12` [Compound 13] here?
A: Increased quantities

Q: And the “solubility in histidine buffer” value [6]?
A: poorly soluble

Q: And the “proportion desorbed after 5 hours” value ([1]; His buff)?
A: 2%

Q: What about the “proportion desorbed after 5 hours” value ([1]; Plasma/His buff) of the same molecule?
A: 9%

Q: And the “proportion desorbed after 5 hours” value [1, 10]?
A: 4%

Q: Which concentration at 24 h [2, 12] does the source give for `CCCCCCCCCCCC(=O)OC[C@H](CSC[C@H](N)C(=O)NC1(COCCCP(=O)(O)O)CC1)OC(=O)CCCCCCCCCCC` [Compound 22, (3-((1-((R)-2-amino-3-(((R)-2,3-bis(dodecanoyloxy)propyl)thio)propanamido)cyclopropyl)methoxy)propyl)phosphonic acid] here?
A: 25300 nM

Q: And the concentration at 24 h ([2]; compound alone)?
A: 0 nM

Q: For `COCCOc1cc2c(nc(O)n2Cc2ccc(CP(=O)(O)O)cc2)c(N)n1` [Compound 67, (4-((4-amino-6-(2-methoxyethoxy)-2-oxo-2,3-dihydro-1H-imidazo[4,5-c]pyridin-1-yl)methyl)benzyl)phosphonic acid], which “effect of adsorption to Al—H on systemic cytokines” value (serum cytokines) is on record?
A: generally reduced or unaffected

Q: What about the “SBA titers at day 28” value [7] of the same molecule?
A: 64

Q: What about the solubility (Water solubility) of the same molecule?
A: > 1000 µg/mL

Q: And the AUC [4, 11]?
A: 3.57 µM·h

Q: And the AUC ([4]; +Al—H (adsorbed), 24 hours)?
A: 8.11 µM·h

Q: And the Cmax ([4]; +Al—H (adsorbed))?
A: 4510 nM

Q: What about the Cmax ([4]; compound alone) of the same molecule?
A: 4060 nM

Q: And the “detection in muscle 24 hours” value ([2]; injected with Al—H)?
A: readily detected

Q: What about the “detection in muscle 24 hours” value ([2]; without Al—H (free form)) of the same molecule?
A: undetectable

Q: And the concentration at 24 h [2, 12]?
A: 2880 nM

Q: And the concentration at 24 h ([2]; compound alone)?
A: 0 nM

Q: What about the pEC50 (human TLR7) of the same molecule?
A: 5.19

Q: Which results are given for `CCOCc1nc2c(N)nc3ccccc3c2n1CCOCCOCCOCCP(=O)(O)O` [Compound 68, (2-(2-(2-(2-(4-amino-2-(ethoxymethyl)-1H-imidazo[4,5-c]quinolin-1-yl)ethoxy)ethoxy)ethoxy)ethyl)phosphonic acid]?
A: effect of adsorption to Al—H on systemic cytokines (serum cytokines): generally reduced or unaffected; solubility (Water solubility): > 1000 µg/mL; AUC [4, 11]: 1.39 µM·h; AUC ([4]; +Al—H (adsorbed), 24 hours): 2.76 µM·h; Cmax ([4]; +Al—H (adsorbed)): 1720 nM; Cmax ([4]; compound alone): 2120 nM; detection in muscle 24 hours after intramuscular injection ([2]; injected with Al—H): readily detected; detection in muscle 24 hours after intramuscular injection ([2]; without Al—H (free form)): undetectable; concentration at 24 h [2, 12]: 502 nM; concentration at 24 h ([2]; compound alone): 0 nM; pEC50 (human TLR7): 4.55

Q: With `CCCCCNc1nc(N)nc(C)c1Cc1ccc(CP(=O)(O)O)cc1` [Compound 69] as the molecule, how does the pEC50 (human TLR7) read?
A: 4.32

Q: Which results are given for `CCCCCNc1nc(N)nc(C)c1Cc1ccc(OCCOCCC(F)(F)P(=O)(O)O)cc1OC` [Compound 71, (3-(2-(4-((2-amino-4-methyl-6-(pentylamino)pyrimidin-5-yl)methyl)-3-methoxyphenoxy)ethoxy)-1,1-difluoropropyl)phosphonic acid]?
A: effect of adsorption to Al—H on systemic cytokines (serum cytokines): generally reduced or unaffected; SBA titers at day 28 [7]: 65; solubility (Water solubility): > 1000 µg/mL; AUC [4, 11]: 2.09 µM·h; AUC ([4]; +Al—H (adsorbed), 24 hours): 4.22 µM·h; Cmax ([4]; +Al—H (adsorbed)): 1810 nM; Cmax ([4]; compound alone): 2600 nM; detection in muscle 24 hours after intramuscular injection ([2]; injected with Al—H): readily detected; detection in muscle 24 hours after intramuscular injection ([2]; without Al—H (free form)): undetectable; concentration at 24 h [2, 12]: 924 nM; concentration at 24 h ([2]; compound alone): 0 nM; pEC50 (human TLR7): 5.57

Q: For `CCCCCCCCCCCC(=O)OC[C@H](CSC[C@H](N)C(=O)NCCOCCOCCOCCP(=O)(O)O)OC(=O)CCCCCCCCCCC` [Compound 72, ((14R,18R)-14-amino-18-(dodecanoyloxy)-13,21-dioxo-3,6,9,20-tetraoxa-16-thia-12-azadotriacontyl)phosphonic acid], which concentration at 24 h [2, 12] is on record?
A: 14500 nM

Q: And the concentration at 24 h ([2]; compound alone)?
A: 0 nM

Q: What does the source list for `CCCCCCCCCCCCOC[C@H](CSC[C@H](N)C(=O)NCCOCCOCCOCCP(=O)(O)O)OCCCCCCCCCCCC` [Compound 74, ((14R,18R)-14-amino-18-(dodecyloxy)-13-oxo-3,6,9,20-tetraoxa-16-thia-12-azadotriacontyl)phosphonic acid]?
A: AUC [4, 13]: 37.4 µM·h; AUC [4, 14]: 3.39 µM·h; Cmax ([4]; +Al—H (adsorbed)): 317 nM; Cmax ([4]; compound alone): 1940 nM; concentration at 24 h [2, 12]: 49000 nM; concentration at 24 h ([2]; compound alone): 27800 nM

Q: Which AUC [4, 13] does the source give for `CCCCCCCCCCCCOC[C@H](CSC[C@H](N)C(=O)NCCOCCOCCOCCP(=O)(O)O)NC(=O)CCCCCCCCCCC` [Compound 80, ((14R,18R)-14-amino-18-dodecanamido-13-oxo-3,6,9,20-tetraoxa-16-thia-12-azadotriacontyl)phosphonic acid] here?
A: 20.7 µM·h

Q: And the AUC [4, 14]?
A: 7.26 µM·h

Q: And the Cmax ([4]; +Al—H (adsorbed))?
A: 180 nM

Q: And the Cmax ([4]; compound alone)?
A: 2820 nM

Q: What about the concentration at 24 h [2, 12] of the same molecule?
A: 47200 nM

Q: What about the concentration at 24 h ([2]; compound alone) of the same molecule?
A: 5070 nM

Q: For `Cc1ccc(CCc2cnc3c(N)nc4cc(C)ccc4c3c2)c(C)c1` [compound O], which “co-localisation with Al—H (flow cytometry)” value [8] is on record?
A: separate population

Q: And the “adsorption to the Al—H adjuvant” value [9]?
A: fails to adsorb
